Test results: US7011948B2, “Detection of ligand-antiligand complex formation by electromagnetically detectable bulk property measurement” (MDS Sciex, priority 2002, dated 2006)
pKd: −log10 of the molar value. “Also recorded” adds a separate entry of the source. Like-named read-outs stand apart in the source and are kept apart here.

Experiments:
Ribonuclease A (RNase A) = biological target: T1, Ribonuclease A (RNase A) (Bos taurus, UniProt P61823); assay: Multipole Coupling Spectroscopy (MCS) binding titration of CMP ligands with RNase A; settings: for binding strength to RNase A in words: summary of ITC and MCS results
T1 construct: purchased Sigma (St. Louis, Mo.) R5503
T1 sequence (P61823 27-150): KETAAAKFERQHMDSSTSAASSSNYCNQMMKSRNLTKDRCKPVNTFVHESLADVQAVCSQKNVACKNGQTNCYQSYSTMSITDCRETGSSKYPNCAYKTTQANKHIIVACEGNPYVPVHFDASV
From the text: Given the equation εtot=α+βL0+γg(A0,L0,KD), it can be seen that εtot is a function of L0 and KD (F(L0,KD)). εtot is a measured value and L0 is known. If KD is fixed, εtot can be predicted from L0. Then, KD can be adjusted until the predicted and measured values of εtot are as close as possible according to a nonlinear least squares analysis defined as follows: {(^1L0,^1εtot)|i=1, 2, . . . n} measurements find KD such that • Σ[^1εtot−F(^iLO,KD)]^2 is a minimum.
This formula defines the objective function for this nonlinear least squares problem. The problem is called a least squares problem because the objective function is the sum of the squares of the residuals (differences) between the measurements and the model predictions. The solution is the value of KD that minimizes the objective function. FIG. 7 depicts a plot showing an example of this objective function. There are many ways to minimize the objective function. Any standard function optimization algorithm, such as the steepest descent algorithm, can be used. Some objective function minimization methods take advantage of the particular structure of this objective function, for example the conjugate gradient method and the Levenberg-Marquardt method, and their use may be preferred in many instances. In this way, the strength of the ligand/antiligand bond can be quantified.
Materials. Ribonuclease A, (RNase A, catalogue # R5503)), cytidine 2′-monophosphate free acid (2′-CMP, catalogue # C7137), cytidine 3′-monophosphate free acid (3′-CMP, catalogue # C1133), cytidine 5′-monophosphate free acid (5′-CMP, catalogue # C1131), sodium chloride (catalogue # S7653), magnesium chloride (catalogue # M2670), Bis-Tris free base (catalogue # B7535), and Bis-Tris hydrochloride salt (catalogue # B6032) were purchased from Sigma (St. Louis, Mo.). The surfactant NP-40 (catalogue # 492015) was purchased from Calbiochem (San Diego, Calif.). These reagents were used without further purification. All solutions were prepared using milliQ water. These experiments were performed in a pH 6.0 150 mM BIS-TRIS buffer containing 10 mM sodium chloride, 10 mM magnesium chloride, and 0.005% v/v NP-40. Preparation of Sample Solutions. The protein solution was prepared by dissolving RNase A in the Bis-Tris buffer to give a final concentration of 1 mM protein; no subsequent dialysis was performed. The ligand solutions were prepared by dissolving 2′-CMP, 3′-CMP or 5′-CMP in the 1 mM RNase A solution to give a final concentration of 4 mM ligand. A series of samples which formed the basis of the ligand binding curve were prepared by mixing various ratios of the above two solutions as outlined in Table 1. Multipole Coupling Spectroscopy (MCS). […] The flow cell (a polyimide tube with an 0.0285″ I.D. and an 0.0305″ O.D. from HV Technologies, Trenton, Ga.) was mounted on the top of the coaxial resonating detector such that only the wall of the tubing separated the detector and the fluidic sample. The AFM was used to draw the fluidic samples into the detection region of the flow cell. The network analyzer settings used were S11 reflection, log magnitude, linear frequency sweep in stepped mode, 401 points, IF bandwidth of 30 Hz, power of −5 dBm, and no cable calibration was applied.
To set up the instrument to measure the data of a binding titration, the protein solution was first introduced to the flow cell of the coaxial resonating fixture and the fixture was coupled by adjusting the size of the gap until the desired reflection was achieved (approximately −30 dBm). The co-axial resonator has a sliding mechanism composed of a single dimension translation stage and a mechanical motor (Picomotor Driver from New Focus Inc., San Jose, Calif.) to adjust the gap size separating the pieces of coax such that the desired MCS reflection is achieved. Each of the remaining fluidic samples described in Table 1, below, were sequentially measured. […]

RNase = biological target: T2, RNase (Bos taurus, UniProt P61823); assay: Isothermal Titration Calorimetry (ITC) binding to RNase
T2 sequence (P61823 27-150): T1 sequence (P61823 27-150)
From the text: Table 2, below, provides the chemical structure of each of the three CMP ligands used in this experiment and a comparison of their dissociation constants (KD) binding to RNase as determined by Isothermal Titration Calorimetry (ITC) and Multipole Coupling Spectroscopy (MCS).

RNase A = biological target: T3, RNase A (Bos taurus, UniProt P61823); assay: Refractive index binding titration of 2′CMP with RNase A; settings: 1 mM RNase; 150 mM Bis-Tris buffer pH 6; 2′CMP up to 4 mM
T3 construct: purchased Sigma
T3 sequence (P61823 27-150): T1 sequence (P61823 27-150)
Protocol: As verification of the generality of the inventive technique in bulk property situations other than the measurements involving permittivity, an experiment was carried out by measuring refractive index as the bulk property of a test solution. The binding assay used was one of the ones shown in Example 1, namely binding of RNase A to the RNase inhibitor 2′CMP. The refractometer used to measure the refractive index of the samples was a Wyatt Technologies Optilab DSP refractometer, calibrated using sodium chloride solutions as described in the manufacturer's instructions. RNase (Sigma) was dissolved in a buffer containing 150 mM Bis-Tris, 10 mM NaCl, 10 mM MgCl2, 0.005% […], pH 6, to provide 1 mM RNase. A portion of this solution was fed into the reference cell of the refractometer, and the instrument was left standing until the readout had stabilized. The test ligand, 2′CMP, was dissolved to 4 mM in a portion of the 1 mM RNase solution, and a titration was prepared to produce the following concentrations.
Samples were then loaded into the Optilab sample cell using a syringe and measured in the following order: […]
The refractometer was zeroed using a 1 mM RNase solution. […] The refractive index change relative to the reference cell was calculated using the software and plotted against the concentration of 2′CMP.

[1] = 27° C., 1 mM RNase A, pH 6.0 Bis-Tris buffer, 1.3 GHz, vs ligand concentration, read-out: KD from fit of absolute permittivity values (e′ real part of permittivity), FIG. 11A
[2] = 27° C., 1 mM RNase A, pH 6.0 Bis-Tris buffer, vs ligand-to-protein ratio, read-out: KD from fit of change in impedance (Zi, imaginary part of impedance), FIG. 11E
[3] = 27° C., 1 mM RNase A, pH 6.0 Bis-Tris buffer, vs ligand-to-protein ratio, read-out: MCS KD from fit of change in permittivity (e′ real part of permittivity), FIG. 11C
[4] = 27° C., 1 mM RNase A, pH 6.0 Bis-Tris buffer, vs ligand-to-protein ratio

| SMILES | pKd (Ribonuclease A (RNase A); [1]) | pKd (Ribonuclease A (RNase A); [2]) | pKd (Ribonuclease A (RNase A); [3]) | binding strength to RNase A in words (Ribonuclease A (RNase A)) | pKd (RNase) | refractive index change vs concentration plot (FIG. 12), binding detection (RNase A) | KD from fit of absolute permittivity values (e′ real part of permittivity), FIG. 11A (Ribonuclease A (RNase A); 27° C., 1 mM RNase A, pH 6.0 Bis-Tris buffer, 1.3 GHz, vs ligand concentration) | KD from fit of change in impedance (Zi, imaginary part of impedance), FIG. 11E (Ribonuclease A (RNase A); [4]) | MCS KD from fit of change in permittivity (e′ real part of permittivity), FIG. 11C (Ribonuclease A (RNase A); [4]) | ITC KD (RNase) |
| --- | --- | --- | --- | --- | --- | --- | --- | --- | --- | --- |
| Nc1ccn([C@@H]2O[C@H](CO)[C@@H](O)[C@H]2OP(=O)(O)O)c(=O)n1 [2′-CMP, cytidine 2′-monophosphate free acid] | 5.00 | 4.96 | 5.00 | relatively strong binder | 5.20 | deviates significantly from linearity, indicating that binding has taken place | – | – | – | – |
| Nc1ccn([C@@H]2O[C@H](CO)[C@@H](OP(=O)(O)O)[C@H]2O)c(=O)n1 [3′-CMP, cytidine 3′-monophosphate free acid] | 3.89 | 4.12 | 3.89 | relatively weak binder | 4.12 | – | – | – | – | – |
| Nc1ccn([C@@H]2O[C@H](COP(=O)(O)O)[C@@H](O)[C@H]2O)c(=O)n1 [5′-CMP, cytidine 5′-monophosphate free acid] | – | – | – | unmeasurably weak | – | – | No suitable curve fit was achieved | No suitable curve fit was achieved | No suitable curve fit was achieved; also recorded: non-binding | non-binding |
